Measurements reported in patent publication US20230131192A1, “1H-PYRAZOLO[4,3-d]PYRIMIDINE COMPOUNDS AS TOLL-LIKE RECEPTOR 7 (TLR7) AGONISTS” (BRISTOL-MYERS SQUIBB COMPANY, priority 2020, published 2023).

Key:
human TLR7 = target: T1, human TLR7 (Homo sapiens, UniProt Q9NYK1); assay: Human TLR7 agonist (reporter) activity assay, HEK-Blue TLR7 cells, SEAP reporter; type: cell-based; details: 18 h treatment, average where assay was performed multiple times, read-out: hTLR7 Agonism EC50
T1 construct: host or cells: HEK-Blue TLR7 cells (engineered human embryonic kidney cells)
T1 sequence (Q9NYK1 27-1049): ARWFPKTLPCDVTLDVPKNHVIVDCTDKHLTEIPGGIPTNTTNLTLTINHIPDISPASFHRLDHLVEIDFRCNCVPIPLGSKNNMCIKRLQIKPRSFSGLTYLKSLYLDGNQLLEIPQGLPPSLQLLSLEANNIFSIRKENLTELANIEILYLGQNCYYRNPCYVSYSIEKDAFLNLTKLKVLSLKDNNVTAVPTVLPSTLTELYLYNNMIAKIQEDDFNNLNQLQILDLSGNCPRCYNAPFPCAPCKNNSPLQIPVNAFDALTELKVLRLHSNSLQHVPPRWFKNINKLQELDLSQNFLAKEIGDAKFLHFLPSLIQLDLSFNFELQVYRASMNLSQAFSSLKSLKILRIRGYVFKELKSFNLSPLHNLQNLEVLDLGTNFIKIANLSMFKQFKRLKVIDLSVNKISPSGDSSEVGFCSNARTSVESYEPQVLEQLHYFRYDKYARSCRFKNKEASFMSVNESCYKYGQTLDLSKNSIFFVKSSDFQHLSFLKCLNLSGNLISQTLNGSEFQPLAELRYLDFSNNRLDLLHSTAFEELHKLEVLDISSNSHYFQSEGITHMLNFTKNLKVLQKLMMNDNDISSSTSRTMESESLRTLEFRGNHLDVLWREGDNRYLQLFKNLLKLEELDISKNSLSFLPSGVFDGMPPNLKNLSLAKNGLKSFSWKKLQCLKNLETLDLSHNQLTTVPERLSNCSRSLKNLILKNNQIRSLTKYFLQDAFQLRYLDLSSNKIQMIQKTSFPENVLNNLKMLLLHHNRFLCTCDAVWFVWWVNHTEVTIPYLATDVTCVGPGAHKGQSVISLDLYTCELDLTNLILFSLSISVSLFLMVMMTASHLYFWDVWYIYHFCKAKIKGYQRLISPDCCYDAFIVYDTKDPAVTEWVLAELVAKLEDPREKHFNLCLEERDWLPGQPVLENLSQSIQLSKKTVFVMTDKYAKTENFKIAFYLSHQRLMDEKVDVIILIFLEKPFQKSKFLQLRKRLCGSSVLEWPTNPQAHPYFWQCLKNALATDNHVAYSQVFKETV
Experimental: This procedure describes a method for assaying human TLR7 (hTLR7) agonist activity of the compounds disclosed in this specification.
HEK-Blue™ TLR7 cells were added to each well of a 384-well tissue-culture plate (15,000 cells per well) and incubated 16-18 h at 37° C., 5% CO2. Compounds (100 nl) were dispensed into wells containing the HEK-Blue™ TLR cells and the treated cells were incubated at 37° C., 5% CO2. After 18 h treatment ten microliters of freshly-prepared Quanti-Blue™ reagent (Invivogen) was added to each well, incubated for 30 min (37° C., 5% CO2) and SEAP levels measured using an Envision plate reader (OD=620 nm). The half maximal effective concentration values (EC50; compound concentration which induced a response halfway between the assay baseline and maximum) were calculated.

CD69 = assay: Induction of CD69 in human whole blood; type: cell-based; details: 17 hrs, CD69 surface staining, 100% set to 1 uM of resiquimod, average where assay was performed multiple times, read-out: hWB CD69 EC50
Experimental: The induction of Type I interferon (IFN) MX-1 genes and the B-cell activation marker CD69 are downstream events that occur upon activation of the TLR7 pathway. The following is a human whole blood assay that measures their induction in response to a TLR7 agonist.
Heparinized human whole blood was harvested from human subjects and treated with test TLR7 agonist compounds at 1 mM. The blood was diluted with RPMI 1640 media and Echo was used to predot 10 nL per well giving a final concentration of 1 uM (10 nL in 10 uL of blood). After mixing on a shaker for 30 sec, the plates were covered and placed in a 37° C. chamber for o/n=17 hrs. Fixing/lysis buffer was prepared (5×→1× in H2O, warm at 37° C.; Cat # BD 558049) and kept the perm buffer (on ice) for later use.
For surface markers staining (CD69): prepared surface Abs: 0.045 ul hCD14-FITC (ThermoFisher Cat # MHCD1401)+0.6 ul hCD19-ef450 (ThermoFisher Cat #48-0198-42)+1.5 ul hCD69-PE (cat # BD555531)+0.855 ul FACS buffer. Added 3 ul/well, spin1000 rpm for 1 min and mixed on shaker for 30 sec, put on ice for 30 mins. Stop stimulation after 30 minutes with 70 uL of prewarmed 1× fix/lysis buffer and use Feliex mate to resuspend (15 times, change tips for each plate) and incubate at 37 C for 10 minutes.
Centrifuge at 2000 rpm for 5 minutes aspirate with HCS plate washer, mix on shaker for 30 sec and then wash with 70 uL in dPBS and pelleted 2×s (2000 rpm for 5 min) and 50 ul wash in FACS buffer pelleted 1×s(2000 rpm for 5 min). Mix on shaker for 30 sec. For Intracellular markers staining (MX-1): Add 50 ul of BD Perm buffer III and mix on shaker for 30 sec. Incubate on ice for 30 minutes (in the dark). Wash with 50 uL of FACS buffer 2× (spin @2300 rpm×5 min after perm) followed by mixing on shaker for 30 sec. Resuspended in 20 ul of FACS buffer containing MX1 antibody ( )(4812)-Alexa 647: Novus Biologicals #NBP2-43704AF647) 20 ul FACS bf+0.8 ul hlgG+0.04 ul MX-1. Spin 1000 rpm for 1 min, mix on shaker for 30se and the samples were incubated at RT in the dark for 45 minutes followed by washing 2×FACS buffer (spin @2300 rpm×5 min after perm). Resuspend 20 ul (35 uL total per well) of FACS buffer and cover with foil and place in 4° C. to read the following day. Plates were read on iQuePlus. The results were loaded into toolset and […] curves are generated in curve master. The y-axis 100% is set to 1 uM of resiquimod.

| EC50 (human TLR7) | EC50 (CD69) | SMILES |
| --- | --- | --- |
| 338 nM | 75.4 nM | COc1cc(CNC2CCOCC2)ccc1Cn1ncc2nc(N)nc(NCC[C@H](O)C3CC3)c21 [Compound 109A, (1S)-3-({5-amino-1-[(2-methoxy-4-{[(oxan-4-yl)amino]methyl}phenyl)methyl]-1H-pyrazolo[4,3-d]pyrimidin-7-yl}amino)-1-cyclopropylpropan-1-ol] |
| 138 nM | 15.2 nM | COc1cc(CN2CC(OC)C2)ccc1Cn1ncc2nc(N)nc(N[C@H](CO)CC3CC3)c21 [Compound 125, (2S)-2-{[5-amino-1-({2-methoxy-4-[(3-methoxyazetidin-1-yl)methyl]phenyl}methyl)-1H-pyrazolo[4,3-d]pyrimidin-7-yl]amino}-3-cyclopropylpropan-1-ol] |
| 1330 nM | 163 nM | COc1cc(CNC2CCOCC2)ccc1Cn1ncc2nc(N)nc(NCC[C@@H](O)C3CC3)c21 [Compound 109b, (1R)-3-({5-amino-1-[(2-methoxy-4-{[(oxan-4-yl)amino]methyl}phenyl)methyl]-1H-pyrazolo[4,3-d]pyrimidin-7-yl}amino)-1-cyclopropylpropan-1-ol] |
| 342 nM | 119 nM | COc1cc(CNC2CCOCC2)ccc1Cn1ncc2nc(N)nc(N[C@H](CO)CC3CC3)c21 [Compound 108, (2S)-2-({5-amino-1-[(2-methoxy-4-{[(oxan-4-yl)amino]methyl}phenyl)methyl]-1H-pyrazolo[4,3-d]pyrimidin-7-yl}amino)-3-cyclopropylpropan-1-ol] |
| 74.6 nM | 25.8 nM | COc1cc(CNC2CCC2)ccc1Cn1ncc2nc(N)nc(NCc3cc(C)on3)c21 [Compound 102, 1-({4-[(cyclobutylamino)methyl]-2-methoxyphenyl}methyl)-N7-[(5-methyl-1,2-oxazol-3-yl)methyl]-1H-pyrazolo[4,3-d]pyrimidine-5,7-diamine] |
| 72.4 nM | 25.5 nM | COc1cc(CNC2CCOCC2)ccc1Cn1ncc2nc(N)nc(NCc3noc(C4CC4)n3)c21 [Compound 127, N7-[(5-cyclopropyl-1,2,4-oxadiazol-3-yl)methyl]-1-[(2-methoxy-4-{[(oxan-4-yl)amino]methyl}phenyl)methyl]-1H-pyrazolo[4,3-d]pyrimidine-5,7-diamine] |
| 95.9 nM | 10.3 nM | COc1cc(CNC2CCOCC2)ccc1Cn1nc(C)c2nc(N)nc(NCc3cc(C)on3)c21 [Compound 112, 1-[(2-methoxy-4-{[(oxan-4-yl)amino]methyl}phenyl)methyl]-3-methyl-N7-[(5-methyl-1,2-oxazol-3-yl)methyl]-1H-pyrazolo[4,3-d]pyrimidine-5,7-diamine] |

Continued, compound first:

| SMILES | EC50 (human TLR7) | EC50 (CD69) |
| --- | --- | --- |
| COc1cc(CN2CCN(CCO)CC2)ccc1Cn1nc(C)c2nc(N)nc(NCC[C@H](O)C3CC3)c21 [Compound 126, (1S)-3-({5-amino-1-[(4-{[4-(2-hydroxyethyl)piperazin-1-yl]methyl}-2-methoxyphenyl)methyl]-3-methyl-1H-pyrazolo[4,3-d]pyrimidin-7-yl}amino)-1-cyclopropylpropan-1-ol] | 740 nM | 25.3 nM |
| COc1cc(CN2CCN(CCO)CC2)ccc1Cn1nc(C)c2nc(N)nc(NCc3noc(C)n3)c21 [Compound 132, 2-[4-({4-[(5-amino-3-methyl-7-{[(5-methyl-1,2,4-oxadiazol-3-yl)methyl]amino}-1H-pyrazolo[4,3-d]pyrimidin-1-yl)methyl]-3-methoxyphenyl}methyl)piperazin-1-yl]ethan-1-ol] | 424 nM |  |
| COc1cc(CN2CCN(CCO)CC2)ccc1Cn1ncc2nc(N)nc(NCc3noc(C)n3)c21 [Compound 117, 2-[4-({4-[(5-amino-7-{[(5-methyl-1,2,4-oxadiazol-3-yl)methyl]amino}-1H-pyrazolo[4,3-d]pyrimidin-1-yl)methyl]-3-methoxyphenyl}methyl)piperazin-1-yl]ethan-1-ol] | 18.6 nM | 1.4 nM |
| COc1cc(CN2CCS(=O)(=O)CC2)ccc1Cn1ncc2nc(N)nc(NCc3noc(C)n3)c21 [Compound 121, 4-({4-[(5-amino-7-{[(5-methyl-1,2,4-oxadiazol-3-yl)methyl]amino}-1H-pyrazolo[4,3-d]pyrimidin-1-yl)methyl]-3-methoxyphenyl}methyl)-1λ^6-thiomorpholine-1,1-dione] | 656 nM | 289 nM |
| COc1cc(CN2CCN(CCO)CC2)cnc1Cn1ncc2nc(N)nc(NCc3noc(C)n3)c21 [Compound 131, 2-[4-({6-[(5-amino-7-{[(5-methyl-1,2,4-oxadiazol-3-yl)methyl]amino}-1H-pyrazolo[4,3-d]pyrimidin-1-yl)methyl]-5-methoxypyridin-3-yl}methyl)piperazin-1-yl]ethan-1-ol] | 1000 nM | 72.7 nM |
| COc1cc(CN2CCN(CCO)CC2)ccc1Cn1ncc2nc(N)nc(NCc3cc(C)on3)c21 [Compound 105, 2-[4-({4-[(5-amino-7-{[(5-methyl-1,2-oxazol-3-yl)methyl]amino}-1H-pyrazolo[4,3-d]pyrimidin-1-yl)methyl]-3-methoxyphenyl}methyl)piperazin-1-yl]ethan-1-ol] | 23.4 nM |  |
| COc1cc(CO)ccc1Cn1ncc2nc(N)nc(NCc3noc(C)n3)c21 [Compound 116, {4-[(5-amino-7-{[(5-methyl-1,2,4-oxadiazol-3-yl)methyl]amino}-1H-pyrazolo[4,3-d]pyrimidin-1-yl)methyl]-3-methoxyphenyl}methanol] | 729 nM |  |
| COc1cc(CNC2CCOCC2)ccc1Cn1nc(C)c2nc(N)nc(NCc3noc(C)n3)c21 [Compound 133, 1-[(2-methoxy-4-{[(oxan-4-yl)amino]methyl}phenyl)methyl]-3-methyl-N7-[(5-methyl-1,2,4-oxadiazol-3-yl)methyl]-1H-pyrazolo[4,3-d]pyrimidine-5,7-diamine] | 1110 nM |  |
| COc1cc(CN2CCN(C)CC2)ccc1Cn1nc(C)c2nc(N)nc(NCc3noc(C)n3)c21 [Compound 134, 1-({2-methoxy-4-[(4-methylpiperazin-1-yl)methyl]phenyl}methyl)-3-methyl-N7-[(5-methyl-1,2,4-oxadiazol-3-yl)methyl]-1H-pyrazolo[4,3-d]pyrimidine-5,7-diamine] | 159 nM |  |
